# From ChEMBL document CHEMBL1201862, “PubChem BioAssay data set” (2004)
# Calls of active or inactive are those of the source.
# Columns and labels:
# [1] = nonselective inhibitors of cellular cAMP signaling, dose response, counter-screen for MC4R biased antagonist project, cell-based, TR-FRET cAMP detection (AID 602305); assay type: functional;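 also: U2OS cells stimulated with forskolin near its EC80 as the cAMP inducer; potency is for inhibition of forskolin-stimulated cAMP signaling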
# [2] = target: Melanocortin receptor 4 (Homo sapiens, UniProt P32245); experiment: MC4R antagonist potency on cAMP, dose response, cell-based, TR-FRET, biased antagonists (AID 602298); assay type: functional;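 also: antagonist potency against agonist-stimulated cAMP production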
# [3] = target: T1, Protein Tat (Human immunodeficiency virus type 1 group M subtype B (isolate HXB2)(HIV-1), UniProt P04608); assay type: functional;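 also: tat binding to TAR RNA read out by fluorescence polarization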
# T1 sequence (P04608 whole entry): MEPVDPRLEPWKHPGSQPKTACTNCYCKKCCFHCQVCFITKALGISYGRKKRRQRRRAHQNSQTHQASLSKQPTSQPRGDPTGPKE
# [4] = Luminescence-based cell-based high throughput dose response assay to identify activators of the DAF-12 from the parasite S. stercoralis (ssDAF-12).; assay type: functional
# [5] = target: T2, Oxysterols receptor LXR-beta (Homo sapiens, UniProt P55055); experiment: LXR agonists, Gal4 luciferase reporter, dose response, counter-screen for ssDAF-12 agonist project, cell-based, luminescence, HEK293, S. stercoralis campaign (AID 720737); assay type: functional; details: read-out: IC50 (the source's name)
# T2 sequence (P55055 whole entry): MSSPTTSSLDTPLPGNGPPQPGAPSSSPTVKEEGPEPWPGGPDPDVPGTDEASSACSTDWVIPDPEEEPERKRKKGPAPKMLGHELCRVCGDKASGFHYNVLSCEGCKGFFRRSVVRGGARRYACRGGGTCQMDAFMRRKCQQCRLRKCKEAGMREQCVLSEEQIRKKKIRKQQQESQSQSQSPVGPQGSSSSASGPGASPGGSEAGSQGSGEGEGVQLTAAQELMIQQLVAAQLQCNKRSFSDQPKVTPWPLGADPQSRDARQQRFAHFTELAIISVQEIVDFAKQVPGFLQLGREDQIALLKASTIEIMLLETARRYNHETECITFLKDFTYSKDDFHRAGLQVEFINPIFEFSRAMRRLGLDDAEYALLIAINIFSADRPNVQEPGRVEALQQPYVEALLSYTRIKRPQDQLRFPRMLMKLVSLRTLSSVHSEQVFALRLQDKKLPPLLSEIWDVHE
# [6] = inhibitors of intracellular T. cruzi replication, confirmation, NIH3T3 host cells, beta-gal luminescence (AID 2044); assay type: functional, cell-based;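 also: intracellular parasites grown in NIH/3T3 mouse fibroblasts as host cells; luminescent beta-galactosidase reporter signal from transgenic T. cruzi replicating inside host cells; inhibitors lower the luminescence signal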
# [7] = cytotoxicity toward NIH3T3 fibroblasts, dose response, counter-screen, cell-based, ATP luminescence, mouse fibroblasts (AID 2010); assay type: functional;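 also: cells exposed to compound for about 90 hours before reading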
# [8] = target: T3, Fatty acid synthase (Homo sapiens, UniProt P49327); experiment: FAS thioesterase domain inhibitors, dose response, biochemical, endpoint fluorescence intensity, uHTS hits (AID 624327); assay type: functional;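 also: fluorescence from hydrolysis of an O-methyl fluorescein acyl ester substrate by the enzyme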
# [9] = target: T3, Fatty acid synthase; experiment: FAS thioesterase domain inhibitors, dose response, biochemical, kinetic fluorescence intensity (AID 624326); assay type: functional;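 also: rate of fluorescence rise from hydrolysis of a fluorogenic O-methyl fluorescein ester substrate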
# [10] = target: Photoreceptor-specific nuclear receptor (Homo sapiens, UniProt Q9Y5X4); assay type: functional, cell-based;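 also: CHO-S cells with Gal4-NCOR and VP16-NR2E3 two-hybrid luciferase reporter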
# [11] = THP-1 cell cytotoxicity, dose response, cytotoxicity control for Vif-APOBEC3G degradation inhibitor project, THP-1 cells (AID 1117359); assay type: functional; details: Human immunodeficiency virus 1, THP-1
# [12] = target: Prothrombin (Bos taurus, UniProt P00735); experiment: thrombin inhibition, dose response, biochemical, fluorescence polarization, uHTS hits (AID 602369); assay type: functional
# [13] = target: 72 kDa type IV collagenase (Homo sapiens, UniProt P08253); experiment: Dose Response validation of uHTS RPN11 inhibitor hits using a MMP-2 Fluorescence assay.; assay type: functional
# [14] = target: 26S proteasome non-ATPase regulatory subunit 14 (Homo sapiens, UniProt O00487); experiment: inhibition of proteasome subunit RPN11 – biochemical, fluorescence polarization, uHTS hits, confirmation (AID 602368); assay type: functional
# [15] = target: T4, Interleukin-8 (Homo sapiens, UniProt P10145); experiment: Dose Response confirmation of uHTS small molecule hits for cystic fibrosis induced NFkb Inhibitors in a PAF-induced IL8 counterscreen.; assay type: functional; details: read-out: IC50_Mean
# T4 sequence (P10145 whole entry): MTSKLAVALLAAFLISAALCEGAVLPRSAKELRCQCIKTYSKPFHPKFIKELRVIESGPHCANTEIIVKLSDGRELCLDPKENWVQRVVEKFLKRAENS
# [16] = target: T4, Interleukin-8; experiment: Dose Response confirmation of uHTS small molecule hits for cystic fibrosis induced NFkb Inhibitors in a TNFa-induced IL8 counterscreen.; assay type: functional; details: read-out: IC50_Mean
# T3 sequence (P49327 whole entry, the tested form may be a part): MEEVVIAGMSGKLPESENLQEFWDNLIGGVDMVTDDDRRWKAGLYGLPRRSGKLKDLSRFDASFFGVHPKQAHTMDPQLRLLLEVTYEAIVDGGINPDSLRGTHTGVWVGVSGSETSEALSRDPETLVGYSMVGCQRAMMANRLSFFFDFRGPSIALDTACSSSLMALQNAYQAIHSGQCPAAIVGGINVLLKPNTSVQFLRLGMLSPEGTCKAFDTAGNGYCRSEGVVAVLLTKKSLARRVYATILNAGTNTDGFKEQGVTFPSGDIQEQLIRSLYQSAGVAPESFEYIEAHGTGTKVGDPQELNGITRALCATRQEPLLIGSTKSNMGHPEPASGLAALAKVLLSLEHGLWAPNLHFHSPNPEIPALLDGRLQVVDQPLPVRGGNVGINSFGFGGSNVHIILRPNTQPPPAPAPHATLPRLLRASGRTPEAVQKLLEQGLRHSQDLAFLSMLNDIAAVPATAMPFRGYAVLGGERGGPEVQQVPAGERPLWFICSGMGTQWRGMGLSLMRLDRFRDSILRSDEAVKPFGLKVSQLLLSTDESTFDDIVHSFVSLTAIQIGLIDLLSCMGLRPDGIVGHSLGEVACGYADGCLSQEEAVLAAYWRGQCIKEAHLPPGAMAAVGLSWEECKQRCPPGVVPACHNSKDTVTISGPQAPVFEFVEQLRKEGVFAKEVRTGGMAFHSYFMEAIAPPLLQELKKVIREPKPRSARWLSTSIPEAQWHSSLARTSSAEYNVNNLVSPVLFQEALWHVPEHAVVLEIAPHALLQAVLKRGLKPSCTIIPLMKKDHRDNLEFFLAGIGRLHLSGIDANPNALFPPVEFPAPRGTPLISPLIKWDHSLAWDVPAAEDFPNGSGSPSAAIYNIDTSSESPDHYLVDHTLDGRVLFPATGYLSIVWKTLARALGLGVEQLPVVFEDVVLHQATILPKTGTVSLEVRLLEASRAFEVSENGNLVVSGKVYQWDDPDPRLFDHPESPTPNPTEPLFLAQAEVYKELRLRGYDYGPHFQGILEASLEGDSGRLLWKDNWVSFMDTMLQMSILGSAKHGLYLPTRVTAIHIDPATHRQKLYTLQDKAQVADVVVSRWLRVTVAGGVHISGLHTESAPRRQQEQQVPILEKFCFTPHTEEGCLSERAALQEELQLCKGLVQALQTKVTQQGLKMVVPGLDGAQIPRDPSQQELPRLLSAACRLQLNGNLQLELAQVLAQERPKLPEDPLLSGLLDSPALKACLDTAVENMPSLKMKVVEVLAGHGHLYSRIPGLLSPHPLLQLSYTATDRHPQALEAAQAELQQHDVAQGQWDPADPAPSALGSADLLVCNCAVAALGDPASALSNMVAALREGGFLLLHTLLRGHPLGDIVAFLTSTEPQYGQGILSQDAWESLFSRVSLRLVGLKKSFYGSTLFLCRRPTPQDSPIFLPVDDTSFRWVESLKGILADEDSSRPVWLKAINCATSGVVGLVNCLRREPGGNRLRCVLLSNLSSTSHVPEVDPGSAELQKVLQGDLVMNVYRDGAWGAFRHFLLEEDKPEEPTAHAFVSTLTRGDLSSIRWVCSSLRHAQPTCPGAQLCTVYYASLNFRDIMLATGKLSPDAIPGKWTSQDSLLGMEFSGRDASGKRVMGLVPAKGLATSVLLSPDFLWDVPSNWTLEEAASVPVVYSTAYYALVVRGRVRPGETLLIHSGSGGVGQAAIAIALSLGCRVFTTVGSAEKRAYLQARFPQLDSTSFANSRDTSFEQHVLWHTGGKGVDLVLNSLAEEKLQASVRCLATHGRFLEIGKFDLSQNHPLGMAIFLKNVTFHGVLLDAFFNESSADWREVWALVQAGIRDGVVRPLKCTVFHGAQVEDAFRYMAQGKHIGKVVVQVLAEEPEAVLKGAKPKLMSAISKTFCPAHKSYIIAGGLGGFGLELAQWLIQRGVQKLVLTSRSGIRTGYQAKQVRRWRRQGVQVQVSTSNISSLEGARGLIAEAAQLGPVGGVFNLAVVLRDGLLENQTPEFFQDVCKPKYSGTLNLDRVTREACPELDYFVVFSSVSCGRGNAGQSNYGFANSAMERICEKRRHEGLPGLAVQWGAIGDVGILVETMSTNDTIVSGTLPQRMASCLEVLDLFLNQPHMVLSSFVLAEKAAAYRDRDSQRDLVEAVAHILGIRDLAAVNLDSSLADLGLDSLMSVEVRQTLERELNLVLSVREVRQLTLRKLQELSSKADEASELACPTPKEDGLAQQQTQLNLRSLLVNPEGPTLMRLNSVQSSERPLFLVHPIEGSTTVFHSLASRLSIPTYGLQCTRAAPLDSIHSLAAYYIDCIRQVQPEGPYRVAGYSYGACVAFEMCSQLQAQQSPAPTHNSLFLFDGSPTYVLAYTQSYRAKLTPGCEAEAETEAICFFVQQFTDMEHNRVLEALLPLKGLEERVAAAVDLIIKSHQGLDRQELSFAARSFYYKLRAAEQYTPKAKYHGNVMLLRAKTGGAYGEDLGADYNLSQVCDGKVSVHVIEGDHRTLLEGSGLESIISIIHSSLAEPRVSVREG
# Chain of Melanocortin receptor 4 (P32245 whole entry): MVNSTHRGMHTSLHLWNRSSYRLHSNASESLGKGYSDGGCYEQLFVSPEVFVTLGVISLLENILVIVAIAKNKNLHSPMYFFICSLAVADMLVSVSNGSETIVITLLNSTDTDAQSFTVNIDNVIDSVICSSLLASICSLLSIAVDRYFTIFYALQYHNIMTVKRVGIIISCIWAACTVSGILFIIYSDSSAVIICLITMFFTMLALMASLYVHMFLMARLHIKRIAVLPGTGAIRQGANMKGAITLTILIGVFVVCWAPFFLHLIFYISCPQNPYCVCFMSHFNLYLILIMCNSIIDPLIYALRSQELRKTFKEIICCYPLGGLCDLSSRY
# Chain of 26S proteasome non-ATPase regulatory subunit 14 (O00487 whole entry): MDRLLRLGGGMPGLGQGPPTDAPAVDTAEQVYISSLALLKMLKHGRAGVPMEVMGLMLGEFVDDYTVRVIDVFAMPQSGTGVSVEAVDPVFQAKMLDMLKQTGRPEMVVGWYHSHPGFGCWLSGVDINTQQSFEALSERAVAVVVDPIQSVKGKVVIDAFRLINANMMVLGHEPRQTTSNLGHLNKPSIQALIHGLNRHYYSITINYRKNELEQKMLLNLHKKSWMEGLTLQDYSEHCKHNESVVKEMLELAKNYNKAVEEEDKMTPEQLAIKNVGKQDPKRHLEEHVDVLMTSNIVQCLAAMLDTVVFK
# Chain of 72 kDa type IV collagenase (P08253 whole entry): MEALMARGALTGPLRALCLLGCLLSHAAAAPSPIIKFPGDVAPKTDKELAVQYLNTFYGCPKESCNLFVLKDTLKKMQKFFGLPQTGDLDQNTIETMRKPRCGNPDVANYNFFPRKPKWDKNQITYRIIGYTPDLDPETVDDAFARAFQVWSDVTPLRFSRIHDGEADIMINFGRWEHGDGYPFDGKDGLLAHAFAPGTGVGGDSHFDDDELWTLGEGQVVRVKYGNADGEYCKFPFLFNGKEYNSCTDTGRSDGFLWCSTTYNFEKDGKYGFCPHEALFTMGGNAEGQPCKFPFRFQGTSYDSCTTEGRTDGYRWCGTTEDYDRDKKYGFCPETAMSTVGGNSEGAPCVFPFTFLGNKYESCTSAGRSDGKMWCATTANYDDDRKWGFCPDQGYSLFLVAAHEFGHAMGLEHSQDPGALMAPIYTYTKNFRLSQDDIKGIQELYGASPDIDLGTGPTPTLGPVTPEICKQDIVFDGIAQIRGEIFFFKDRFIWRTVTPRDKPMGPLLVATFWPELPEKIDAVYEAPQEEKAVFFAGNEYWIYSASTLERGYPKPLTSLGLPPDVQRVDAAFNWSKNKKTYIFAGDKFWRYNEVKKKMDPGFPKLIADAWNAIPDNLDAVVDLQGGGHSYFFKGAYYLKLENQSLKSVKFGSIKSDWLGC
# Chain of Photoreceptor-specific nuclear receptor (Q9Y5X4 whole entry, the tested form may be a part): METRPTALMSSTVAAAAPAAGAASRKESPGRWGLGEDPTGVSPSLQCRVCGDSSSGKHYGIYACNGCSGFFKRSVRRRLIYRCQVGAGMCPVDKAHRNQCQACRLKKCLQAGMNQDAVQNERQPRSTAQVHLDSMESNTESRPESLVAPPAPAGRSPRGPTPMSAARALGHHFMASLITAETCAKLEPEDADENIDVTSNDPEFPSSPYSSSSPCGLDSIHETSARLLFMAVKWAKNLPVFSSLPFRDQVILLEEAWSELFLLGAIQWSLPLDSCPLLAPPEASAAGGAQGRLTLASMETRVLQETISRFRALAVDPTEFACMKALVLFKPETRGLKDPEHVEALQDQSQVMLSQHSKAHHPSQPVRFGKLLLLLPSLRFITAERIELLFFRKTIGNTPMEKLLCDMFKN
structure (smiles),measurement,setting,value
Cc1ncn(-c2ccc(C(=O)Oc3ccccc3)cn2)n1,IC50,[1],> 64.5 µM (inactive)
same,IC50,[2],> 64.5 µM (inactive)
COc1ccccc1/C=C(/CC(=O)NCc1ccccc1)c1nc2ccccc2s1,IC50,[3],> 100 µM (active)
CCOc1ccc(-c2noc(COC)n2)cc1OC,IC50,[4],> 67.5 µM (inactive)
same,EC50,[5],> 67.5 µM (inactive)
O=C1OC(c2ccc(F)cc2)=C/C1=C\c1ccc([N+](=O)[O-])o1,EC50,[6],501 nM (active)
same,EC50,[7],> 60 µM (not active)
same,IC50,[3],> 100 µM (active)
Cc1nc2ccc([N+](=O)[O-])cc2c(=O)n1Cc1ccc(Cl)cc1,IC50,[8],0.906 µM (active)
same,IC50,[9],1.05 µM (active)
CSCCC(NC(=O)c1ccc([N+](=O)[O-])cc1Cl)C(=O)OC(C)C(=O)NCc1ccco1 (stereo unspecified),IC50,[1],47.4 µM (inactive)
same,IC50,[2],> 64.6 µM (inactive)
Cc1nc(NC(=O)c2c(-c3ccccc3Cl)noc2C)sc1C,IC50,[10],4.19 µM (active)
O=S(=O)(Nc1ccc2[nH]c(O)nc2c1)c1ccc(F)c(Cl)c1,CC50,[11],> 40 µM (active)
FC(F)(F)c1ccc(Oc2ccc(Cl)cc2Br)nc1,IC50,[4],> 67.5 µM (inactive)
same,EC50,[5],> 67.5 µM (inactive)
CCOC(=O)C1=C(Nc2ccc(OC)cc2)S/C(=C\c2ccc(-c3ccccc3C(=O)O)o2)C1=O,IC50,[12],13.1 µM (active)
same,IC50,[13],> 100 µM (inactive)
same,IC50,[14],17.8 µM (active)
O=C(CC12CC3CC(CC(C3)C1)C2)Nc1nncs1,IC50,[15],9.42 µM (active)
same,IC50,[16],3.19 µM (active)
CCc1ccccc1OCC(=O)Nc1ccc(N2CCCC2)cc1C,IC50,[12],9.96 µM (active)
same,IC50,[13],89 µM (active)
same,IC50,[14],46.2 µM (active)
CCOC(=O)C1CCN(C(=O)COc2ccc([N+](=O)[O-])cc2)CC1,IC50,[8],9.85 µM (active)
same,IC50,[9],9.05 µM (active)
